Data: patent publication US7629310B2, “RhoB as a suppressor of cancer cell growth, cell transformation, and metastasis” (University of South Florida, priority 2000, dated 2009)

Test system: PANC-1 cells
Assay: Invasion through […]-coated transfilters, PANC-1 cells
Format: cell-based, human
Details: PANC-1 cells (FIG. 9B)
Procedure: HRas/3T3 cells (FIG. 9A) and PANC-1 cells (FIG. 9B) were transiently transfected with pcDNA3 vector control, H-Ras61L, CA-Akt, or WT-Akt in the presence or absence of RhoA, RhoB, or pcDNA3 for 36 hours. The cells were then split and analyzed for their invading capabilities through […]-coated transfilters as described in the Materials and Methods section. PANC-1 and PC3 cells (FIG. 9C) were transiently transfected with pcDNA3, with H-Ras61L in the presence or absence of RhoA, or RhoB for 36 hours. The cells were then serum-starved for another 36 hours; the conditioned medium was collected and 20 μg protein were analyzed for MMP-2 expression by Western Blotting.
Whether RhoB can also antagonize cell invasion was evaluated. To this end, H-Ras/3T3 and PANC-1 cells were similarly transfected as above with various oncogenes along with RhoA or RhoB, then seeded onto […]-coated poly-hydrocarbonate filters mounted in the middle of a Boyden transwell apparatus as described under Methods. […] Furthermore, transfection with CA-Akt or WT-Akt enhanced invasion; and RhoB, not RhoA, inhibited this enhancement of invasion (FIGS. 9A and 9B).

Substance: RhoA: closely related family member sharing 86% sequence identity with RhoB; wild-type, in HA-tagged pcDNA3, transfected as control
- invasion through MATRIGEL: invaded
